T1: Der p 1 (Dermatophagoides pteronyssinus, UniProt P08176)
T1 sequence (P08176 99-320): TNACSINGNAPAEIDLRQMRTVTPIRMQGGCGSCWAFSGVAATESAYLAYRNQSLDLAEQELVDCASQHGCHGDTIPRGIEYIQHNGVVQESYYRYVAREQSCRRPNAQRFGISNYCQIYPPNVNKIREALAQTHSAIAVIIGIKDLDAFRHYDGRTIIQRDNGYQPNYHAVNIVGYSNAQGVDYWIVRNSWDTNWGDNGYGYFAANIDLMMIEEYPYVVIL

T2: HDM cysteine proteinase fraction (50% precipitate) (Dermatophagoides pteronyssinus, UniProt P08176)
T2 construct: tissue Commonwealth Serum Laboratory, Parkville, Australia; host or cells: spent culture medium of D. pteronyssinus, 50% saturated ammonium sulphate pellet
T2 sequence (P08176 99-320): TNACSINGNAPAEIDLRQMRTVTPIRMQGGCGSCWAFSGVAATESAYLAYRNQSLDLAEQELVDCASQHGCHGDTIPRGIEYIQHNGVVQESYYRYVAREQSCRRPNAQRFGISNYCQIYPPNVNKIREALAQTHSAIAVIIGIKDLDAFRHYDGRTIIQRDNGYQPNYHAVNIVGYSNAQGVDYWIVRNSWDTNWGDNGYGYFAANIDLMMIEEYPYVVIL


What was measured:
[1] = tested on: intercellular junctions of MDCK cells (ZO-1, desmoplakin); assay: Immunocytochemical visualization of intercellular junctions (ZO-1, desmoplakin); format: cell-based, canine
Description: To study the effects of proteinases and inhibitors on intercellular junctions, MDCK cells were cultured on coverslips and treated with the appropriate proteinase and/or inhibitor for the desired time period. The cells were fixed in ice-cold methanol before binding of rat anti-ZO-1 (mAb R40.76) (Stevenson et al., 1986; Anderson et al., 1988) and mouse anti-desmoplakin (mAb 11-5F) (Parrish et al., 1987). Indirect fluorescent antibody staining was performed using FITC- and TRITC-conjugated second antibodies. Microscopy was carried out using a Zeiss Axiovert microscope with x40 magnification oil immersion Fluar objective. Specimens were illuminated using excitation and emission filter sets for FITC and TRITC. Cells were photographed as described above.

MDCK cell monolayers = assay: Mannitol permeability of MDCK cell monolayers exposed to HDM proteinase fractions; format: cell-based, canine; details: for inhibition of the action of the serine proteinase fraction on mannitol permeability: AEBSF 100μM, fraction 127 azocoll units ml^−1, 18 h (FIG. 3b); for effect of inhibitor alone on intrinsic epithelial permeability: inhibitor per se, no proteinase fraction (FIG. 3)
Description: (§1) Measurements of mannitol clearance were performed on confluent cell monolayers that had been propagated on 0.4μm pore diameter Costar Transwell™ inserts coated with an ungelled ultra-thin undercoat of Madrigel. Coating was achieved by addition of 250μl aliquots of Matrigel (diluted 1:500 v/v in EMEM) to the interior of the insert followed by ambient incubation for 60 min under aseptic conditions. The solution was then aspirated and the inserts gently washed with medium before the addition of a confluent density of cell suspension.
(§2) Cells (2-5×10^5 per cm^2 growth area) were plated onto Matrigel-coated inserts. We use the term ‘insert’ as meaning the filter unit containing the cells and the term ‘well’ as referring to the cavities of the tissue culture plate. To monitor growth and integrity, inserts were taken at random, washed gently in PBS and stained under subdued illumination with acridine orange and ethidium bromide (1mg ml^−1 each in PBS). Inserts were examined by fluorescence microscopy and were used only when confluence with high viability was attained.
(§3) At confluence, the medium was aspirated from the wells and replaced with serum- and bicarbonate-free EMEM buffered with 20 mM HEPES and containing 2 mM L-glutamine. The medium from the inserts was then gently removed and replaced with 300μl of serum-free EMEM containing [^14C]-mannitol (1μCi ml^−1 and 1 mg ml^−1 unlabelled mannitol in HEPES-buffered medium). The Transwell™ plates were then equilibrated for 30 min at 37° C. on a Luckham R100 orbital shaker. Triplicate 100μl aliquots of the unused labelled mannitol solution were sampled and their radioactivity content determined by liquid scintillation spectrometry (Beckman LS6000IC) following addition of 5 ml Opti-Fluor.
(§4) After the equilibration period, the inserts were placed in fresh wells containing 1 ml of serum-free HEPES buffered EMEM and incubated at 37° C. with continuous gentle shaking. The medium from the original wells was retained and its radioactivity content determined after the addition of 10 ml Opti-Fluor. […] At timed intervals, 20μl aliquots of the basolateral bathing fluid were removed and the amount of ^14C mannitol quantified as described above for the calculation of clearance volume.
Clearance estimates were made over 3-5h and were calculated according to the relationship: [formula]
(§5) Under conditions where diffusion is the sole means of transepithelial movement of the solute, dVprobe/dt approximates closely to the permeability-surface area product thus allowing estimation of the permeability of mannitol in the composite system of cells, filter, unstirred layers and protein coating (Pt). Epithelial permeability can be calculated from the measured variable by considering the Matrigel-coated filter and unstirred layers as a system of series permeabilities. Thus: [formula]
Unstirred layer thicknesses are independent of membrane permeability under ideal conditions thus P3 in equations (3) and (4) are identical. Subtracting equations (2) and (3) thus permits the calculation of the permeability of the epithelial monolayer (5). [formula]
Analysis of variance was performed after log transformation of the permeability data and probability values for the different treatments assigned using the least significant difference test. Data are presented as the geometric mean values with indicated standard errors of n experimental observations. Probability levels of P<0.05 were considered statistically significant.

Calu-3 cell monolayers = assay: Mannitol permeability of Calu-3 cell monolayers exposed to HDM proteinase fractions; format: cell-based, human; details: for inhibition of the permeability change caused by the serine proteinase fraction: E-64 10μM, fraction 94 azocoll units ml^−1, 18 h (FIG. 4b); for mannitol permeability: P<0.05, n=5
Description: as §1, §2, §3, §4
Paracellular permeability of mannitol was determined in accordance with the procedure described in our copending U.K. Patent Application No. 9715058 and was calculated from measurements of clearance volume at defined time points. Clearance estimates were made over 3-5h and were calculated according to the relationship: [formula]
as §5
Unstirred layer thicknesses are independent of membrane permeability under ideal conditions thus P3 in equations (3) and (4) are identical. Subtracting equations (2) and (3) thus permits the calculation of the permeability of the epithelial monolayer (5). [formula] […]

Calu-3 cells = assay: DNA fragmentation (agarose gel), Calu-3 cells; format: cell-based, human; details: BB-250 5μM, E-64 10μM; for inhibition of cysteine proteinase fraction-induced DNA fragmentation: fraction 80 azocoll units ml^−1 (FIG. 7b)
Description: Cells were plated on 60×15 mm petri dishes and grown for 2-4 days in serum-containing EMEM under tissue culture conditions in a 5% CO2 atmosphere. Cells were then exposed to treatments in serum-free EMEM containing 20 mM HEPES whilst under aerobic incubation at 37° C. At defined time points, cells were harvested with a scraper and pooled with detached cells in the supernatant. Cells were centrifuged at 550×g for 5 min and their DNA extracted (Nucleon II, Scotlab, Coatbridge, Stratchclyde). The extracted DNA was resuspended in 100μl TE buffer (10 mM Tris-HCL and 1 mM Na2EDTA) overnight at room temperature and its purity determined spectrophotometrically. Equal amounts of DNA were applied in 4:1 ratio with sample buffer (0.25% bromophenol blue and 40% w/v sucrose in water) to each lane of 2% (w/v) agarose gels and electrophoresis performed at 50V for 2-3h in TAE buffer (0.04M Tris-acetate and 0.001M EDTA). Bands of DNA in the gels (which had ethidium bromide incorporated into them) were visualized by ultra-violet light.

Der p 1 = molecular target: T1, Der p 1; details: literature (Herbert et al. 1995; Hewitt et al. 1995, 1997); cited from earlier work
[2] = molecular target: T2, HDM cysteine proteinase fraction (50% precipitate); assay: Enzyme degradation of chromogenic substrates by the 50% ammonium sulphate precipitate; format: biochemical, D. pteronyssinus; details: data not shown
Excerpt: HDM proteinase allergens have not yet been prepared in catalytically competent form by recombinant cellular expression of the mature enzyme protein. For convenience, and to enable future large scale screening of potential inhibitors in the absence of catalytically active recombinant proteins, we sought to separate the cysteine and serine proteinase activity by simple biochemical fractionation of spent medium in which HDM had been grown. During culture the HDM release allergens into the medium resulting in the accumulation of proteins suitable for purification. Spent medium from cultures of D. pteronyssinus (Commonwealth Serum Laboratory, Parkville, Australia) was dissolved in 5 volumes of phosphate buffered saline and then centrifuged at 48,400×g and 4° C. for 20 min. Ammonium sulphate was added gradually to the stirred supernatant at 4° C. to achieve a 50% saturated solution. After centrifugation (48,400×g, 20 min, 4° C.) the pellet, found by enzymatic assay to be enriched in cysteine proteinase activity, was redissolved in a minimum volume of distilled water. […] Protein content of the extracts was measured using the […] technique with serum albumin as standard (Smith et al, 1985). Proteinase activity was measured using the Azocoll degradation assay as described elsewhere (Herbert et al., 1995; Chavira et al., 1984). […]

ICE/ced-3 caspase family = details: literature; cited from earlier work

| Molecule | inhibition of the action of the serine proteinase fraction on mannitol permeability (MDCK cell monolayers) | effect of inhibitor alone on intrinsic epithelial permeability (MDCK cell monolayers) | inhibition of the permeability change caused by the serine proteinase fraction (Calu-3 cell monolayers; Calu-3) | inhibition of cysteine proteinase fraction-induced DNA fragmentation (Calu-3 cells) | inhibition of Der p 1 activity / effects (Der p 1) | further results |
| --- | --- | --- | --- | --- | --- | --- |
| Cl.NCCc1ccc(S(=O)(=O)F)cc1 [AEBSF, 4-(2-aminoethyl)-benzenesulphonyl fluoride hydrochloride] | inhibited | Neither inhibitor per se exerted any observable effect | ablated |  |  | inhibition of serine proteinase fraction-dependent changes in ZO-1/desmoplakin staining ([1]; AEBSF 100μM, fraction 94 azocoll units ml^−1): inhibited; inhibition of the action of the cysteine proteinase fraction on mannitol permeability (Calu-3 cell monolayers; Calu-3, AEBSF 100μM, fraction 80 azocoll units ml^−1, 18 h (FIG. 4a)): failed to inhibit; mannitol permeability (Calu-3 cell monolayers; Calu-3 treated with serine proteinase fraction plus AEBSF): 10.20±0.01 ×10−6 cm s^−1 |
| CNC(=O)[C@H](Cc1ccccc1)NC(=O)[C@H](CC(C)C)[C@H](CS(=O)(=O)c1cccs1)C(=O)NO [BB-250, [4-(N-hydroxyamino)-2R-isobutyl-3S-(thiophen-2-yl-sulphonylmethyl)succinyl]-L-phenylalanine-N-methylamide] |  |  |  | attenuated |  | inhibition of serine proteinase fraction-induced DNA fragmentation (Calu-3 cells; fraction 94 azocoll units ml^−1 (FIG. 7b)): attenuated |
| N=C(N)c1ccc(CS(=O)(=O)F)cc1 [APMSF] |  |  |  |  | reported to be inhibited |  |
| CC(C)C[C@H](NC(=O)[C@H]1O[C@@H]1C(=O)O)C(=O)NCCCCN=C(N)N (relative stereo) [E-64, L-trans-epoxysuccinyl-leucylamido-(4-guanidino)-butane] |  | no observable effect | did not inhibit | inhibited | sensitive to inhibition | catalytic activity of the 50% precipitate [2]: inhibitable; inhibition of cysteine proteinase fraction-dependent changes in ZO-1/desmoplakin staining ([1]; E-64 10μM, fraction 80 azocoll units ml^−1): inhibited; inhibition of the effect of the cysteine proteinase fraction on mannitol permeability (MDCK cell monolayers; E-64 10μM, fraction 80 azocoll units ml^−1, 18 h (FIG. 3a)): attenuated; mannitol permeability (Calu-3 cell monolayers; Calu-3 treated with cysteine proteinase fraction plus E-64): 4.84±0.32 ×10^−6 cm s^−1; sensitivity of ICE/ced-3 caspases to the inhibitor (ICE/ced-3 caspase family): insensitive |
| SBTI: serine proteinase inhibitor; abbreviation not expanded in the patent (protein, UniProt P01070 25-205, looked up) Trypsin inhibitor A: DFVLDNEGNPLENGGTYYILSDITAFGGIRAAPTGNERCPLTVVQSRNELDKGIGTIISSPYRIRFIAEGHPLSLKFDSFAVIMLCVGIPTEWSVVEDLPEGPAVKIGENKDAMDGWFRLERVSDDEFNNYKLVFCPQQAEDDKCGDIGISIDHDDGTRRLVVSKNKPLVVQFQKLDKESL | less effectively | Neither inhibitor per se exerted any observable effect |  |  |  |  |

From patent US6440938B1, “Prevention and/or treatment of allergic conditions” (The Victoria University of Manchester, priority 1997, dated 2002)
